In general, IC50 refers to the concentration that inhibits the measured activity by half. Read a low IC50 as greater potency.

This note sets out measurements from US10450316B2, “Certain protein kinase inhibitor” (Chongqing Fochon Pharmaceutical Co., Ltd., priority 2015, dated 2019).

The subject of this test is BE(2)-C cell. In words: Cell proliferation assay (MTS) in BE(2)-C cells. Type of test: cell-based. The settings on record: Homo sapiens, inhibition of BE(2)-C cell proliferation, 48 h. Put shortly: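 Proliferation read-out was MTS absorbance at 490 nm, with 650 nm as reference, after a 2 h MTS incubation, giving IC50 values. Before reading, BE(2)-C cells plated at 3000 per well were exposed to nine compound concentrations from 10000 down to 1.5 nM for 48 h at 37 °C, 5% CO2.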

For `Fc1cnc(Nc2ccc(CN3CC4(CCNCC4)C3)cn2)nc1-c1cc(F)c2nc3n(c2c1)[C@H](C(F)(F)F)CC3` [Example 61, (S)-N-(5-((2,7-diazaspiro[3.5]nonan-2-yl)methyl)pyridin-2-yl)-5-fluoro-4-(5-fluoro-1-(trifluoro-methyl)-2,3-dihydro-1H-benzo[d]pyrrolo[1,2-a]imidazol-7-yl)pyrimidin-2-amine], the IC50 is over 100 nM.
Under `FC[C@@H]1CCc2nc3c(F)cc(-c4nc(Nc5ccc(CN6CC7CCC(C6)N7)cn5)ncc4F)cc3n21` [Example 35, N-(5-((3,8-diazabicyclo[3.2.1]octan-3-yl)methyl)pyridin-2-yl)-5-fluoro-4-((5)-5-fluoro-1-(fluoro-methyl)-2,3-dihydro-1H-benzo[d]pyrrolo[1,2-a]imidazol-7-yl)pyrimidin-2-amine] stands over 100 nM; under `CN1CC2(C1)CN(Cc1ccc(Nc3ncc(F)c(-c4cc(F)c5nc6n(c5c4)C(C)(C)CC6)n3)nc1)C2` [Example 118, 5-fluoro-4-(5-fluoro-1,1-dimethyl-2,3-dihydro-1H-benzo[d]pyrrolo[1,2-a]imidazol-7-yl)-N-(5-((6-methyl-2,6-diazaspiro[3.3]heptan-2-yl)methyl)pyridin-2-yl)pyrimidin-2-amine], 10 to 100 nM; under `CN1CC2(C1)CN(Cc1ccc(Nc3ncc(F)c(-c4cc(F)c5nc6n(c5c4)[C@H](CF)CC6)n3)nc1)C2` [Example 24, (S)-5-fluoro-4-(5-fluoro-1-(fluoromethyl)-2,3-dihydro-1H-benzo[d]pyrrolo[1,2-a]imidazol-7-yl)-N-(5-((6-methyl-2,6-diazaspiro[3.3]heptan-2-yl)methyl)pyridin-2-yl)pyrimidin-2-amine], over 100 nM.
Under `CN1CCC2(CC1)CCN(Cc1ccc(Nc3ncc(F)c(-c4cc(F)c5nc6n(c5c4)C(C)(C)CC6)n3)nc1)CC2` [Example 121, 5-fluoro-4-(5-fluoro-1,1-dimethyl-2,3-dihydro-1H-benzo[d]pyrrolo[1,2-a]imidazol-7-yl)-N-(5-((9-methyl-3,9-diazaspiro[5.5]undecan-3-yl)methyl)pyridin-2-yl)pyrimidin-2-amine] stands over 100 nM; under `CC1(C)CCc2nc3c(F)cc(-c4nc(Nc5ccc(CN6CC7(CNC7)C6)cn5)ncc4F)cc3n21` [Example 117, N-(5-((2,6-diazaspiro[3.3]heptan-2-yl)methyl)pyridin-2-yl)-5-fluoro-4-(5-fluoro-1,1-dimethyl-2,3-dihydro-1H-benzo[d]pyrrolo[1,2-a]imidazol-7-yl)pyrimidin-2-amine], over 100 nM.
As for `CCN1CC2CCC(C1)N2Cc1ccc(Nc2ncc(F)c(-c3cc(F)c4nc5n(c4c3)C(C)(C)CC5)n2)nc1` [Example 128, N-(5-((3-ethyl-3,8-diazabicyclo[3.2.1]octan-8-yl)methyl)pyridin-2-yl)-5-fluoro-4-(5-fluoro-1,1-dimethyl-2,3-dihydro-1H-benzo[d]pyrrolo[1,2-a]imidazol-7-yl)pyrimidin-2-amine], the IC50 is under 10 nM.
Then `NC1C2CN(Cc3ccc(Nc4ncc(F)c(-c5cc(F)c6nc7n(c6c5)C5(CC7)CC5)n4)nc3)CC12` (centres unmarked) [Example 147, 3-((6-((5-fluoro-4-(5-fluoro-2,3-dihydrospiro [benzo[d]pyrrolo[1,2-a]imidazole-1,1′-cyclo-propan]-7-yl)pyrimidin-2-yl)amino)pyridin-3-yl)methyl)-3-azabicyclo[3.1.0]hexan-6-amine], with over 1000 nM; and `CN1CC2CN(Cc3ccc(Nc4ncc(F)c(-c5cc(F)c6nc7n(c6c5)C(C)(C)CC7)n4)nc3)CC2C1` (centres unmarked) [Example 124, 5-fluoro-4-(5-fluoro-1,1-dimethyl-2,3-dihydro-1H-benzo[d]pyrrolo[1,2-a]imidazol-7-yl)-N-(5-((5-methylhexahydropyrrolo[3,4-c]pyrrol-2(1H)-yl)methyl)pyridin-2-yl)pyrimidin-2-amine], with 10 to 100 nM; and `CCN1C2CCC1CN(Cc1ccc(Nc3ncc(F)c(-c4cc(F)c5nc6n(c5c4)[C@H](C(F)F)CC6)n3)nc1)C2` [Example 59, 4-((S)-1-(difluoromethyl)-5-fluoro-2,3-dihydro-1H-benzo[d]pyrrolo[1,2-a]imidazol-7-yl)-N-(5-((8-ethyl-3,8-diazabicyclo[3.2.1]octan-3-yl)methyl)pyridin-2-yl)-5-fluoropyrimidin-2-amine], with 10 to 100 nM.
Molecule `CC1(C)CCc2nc3c(F)cc(-c4nc(Nc5ccc(CN6CCC7(CC6)CNC7)cn5)ncc4F)cc3n21` [Example 114, N-(5-((2,7-diazaspiro[3.5]nonan-7-yl)methyl)pyridin-2-yl)-5-fluoro-4-(5-fluoro-1,1-dimethyl-2,3-dihydro-1H-benzo[d]pyrrolo[1,2-a]imidazol-7-yl)pyrimidin-2-amine] displayed a half-maximal inhibitory concentration (IC50) of over 100 nM.
Regarding `Fc1cnc(Nc2ccc(CN3CC4CNCC4C3)cn2)nc1-c1cc(F)c2nc3n(c2c1)[C@H](C(F)(F)F)CC3` (some centres unmarked) [Example 73, 5-fluoro-4-((5)-5-fluoro-1-(trifluoromethyl)-2,3-dihydro-1H-benzo[d]pyrrolo[1,2-a]imidazol-7-yl)-N-(5-((hexahydropyrrolo[3,4-c]pyrrol-2(1H)-yl)methyl)pyridin-2-yl)pyrimidin-2-amine], the IC50 was over 100 nM.
As to `CCN1CC2CCC(C1)N2Cc1ccc(Nc2cc(-c3cnc4nc5n(c4c3)C(C)(C)CC5)c(F)cn2)nc1` [Example 169, 4-(6,6-dimethyl-7,8-dihydro-6H-pyrrolo[1′,2′:1,2]imidazo[4,5-b]pyridin-3-yl)-N-(5-((3-ethyl-3,8-diazabicyclo[3.2.1]octan-8-yl)methyl)pyridin-2-yl)-5-fluoropyridin-2-amine], the IC50 is over 100 nM.
The molecule `CCN1CC2CN(Cc3ccc(Nc4ncc(F)c(-c5cc(F)c6nc7n(c6c5)C5(CC7)CC5)n4)nc3)CC21` (centres unmarked) [Example 143, N-(5-((6-ethyl-3,6-diazabicyclo[3.2.0]heptan-3-yl)methyl)pyridin-2-yl)-5-fluoro-4-(5-fluoro-2,3-dihydrospiro[benzo[d]pyrrolo[1,2-a]imidazole-1,1′-cyclopropan]-7-yl)pyrimidin-2-amine] returned an IC50 of over 1000 nM.
Under `CN1CCN(Cc2ccc(Nc3ncc(F)c(-c4cc(F)c5nc6n(c5c4)[C@@H](C(F)F)CC6)n3)nc2)CC1` [Example 153, (R)-4-(1-(difluoromethyl)-5-fluoro-2,3-dihydro-1H-benzo[d]pyrrolo[1,2-a]imidazol-7-yl)-5-fluoro-N-(5-((4-methylpiperazin-1-yl)methyl)pyridin-2-yl)pyrimidin-2-amine] stands over 1000 nM; under `C[C@@]12CNC[C@]1(C)CN(Cc1ccc(Nc3ncc(F)c(-c4cc(F)c5nc6n(c5c4)C4(CC6)CC4)n3)nc1)C2` [Example 138, N-(5-(((3aR,6aS)-3a,6a-dimethylhexahydro-pyrrolo[3,4-c]pyrrol-2(1H)-yl)methyl)pyridin-2-yl)-5-fluoro-4-(5-fluoro-2,3-dihydro-spiro[benzo[d]pyrrolo[1,2-a]imidazole-1,1′-cyclopropan]-7-yl)pyrimidin-2-amine], over 1000 nM; under `C[C@@H]1CCc2nc3c(F)cc(-c4nc(Nc5ccc(CN6CCC7(CC6)CN(C)C7)cn5)ncc4F)cc3n21` [Example 87, (R)-5-fluoro-4-(5-fluoro-1-methyl-2,3-dihydro-1H-benzo[d]pyrrolo[1,2-a]imidazol-7-yl)-N-(5-((2-methyl-2,7-diazaspiro[3.5]nonan-7-yl)methyl)pyridin-2-yl)pyrimidin-2-amine], 10 to 100 nM.
Under `CCN1CC2(CCN(Cc3ccc(Nc4ncc(F)c(-c5cc(F)c6nc7n(c6c5)[C@H](C(F)(F)F)CC7)n4)nc3)CC2)C1` [Example 66] stands 10 to 100 nM; under `CCN1CC2(CCN(Cc3ccc(Nc4ncc(F)c(-c5cc(F)c6nc7n(c6c5)[C@H](C)CC7)n4)nc3)CC2)C1` [Example 88, (R)-N-(5-((2-ethyl-2,7-diazaspiro[3.5]nonan-7-yl)methyl)pyridin-2-yl)-5-fluoro-4-(5-fluoro-1-methyl-2,3-dihydro-1H-benzo[d]pyrrolo[1,2-a]imidazol-7-yl)pyrimidin-2-amine], 10 to 100 nM; under `FC[C@@H]1CCc2nc3c(F)cc(-c4nc(Nc5ccc(CN6CC7(CNC7)C6)cn5)ncc4F)cc3n21` [Example 23, (S)-N-(5-((2,6-diazaspiro[3.3]heptan-2-yl)methyl)pyridin-2-yl)-5-fluoro-4-(5-fluoro-1-(fluoromethyl)-2,3-dihydro-1H-benzo[d]pyrrolo[1,2-a]imidazol-7-yl)pyrimidin-2-amine], over 1000 nM.
Then `CN1CC2CN(Cc3ccc(Nc4ncc(F)c(-c5cc(F)c6nc7n(c6c5)[C@H](C(F)F)CC7)n4)nc3)CC2C1` (stereo partly drawn) [Example 49, 4-((S)-1-(difluoromethyl)-5-fluoro-2,3-dihydro-1H-benzo[d]pyrrolo[1,2-a]imidazol-7-yl)-5-fluoro-N-(5-((5-methylhexahydropyrrolo[3,4-c]pyrrol-2(1H)-yl)methyl)pyridin-2-yl)pyrimidin-2-amine], with 10 to 100 nM; and `O[C@@H]1C[C@H]2CN(Cc3ccc(Nc4ncc(F)c(-c5cc(F)c6nc7n(c6c5)C5(CC7)CC5)n4)nc3)CCN2C1` [Example 146, (7R,8aS)-2-((6-((5-fluoro-4-(5-fluoro-2,3-dihydro-spiro[benzo[d]pyrrolo[1,2-a]imidazole-1,1′-cyclo-propan]-7-yl)pyrimidin-2-yl)amino)pyridin-3-yl)methyl)octahydropyrrolo[1,2-a]pyrazin-7-ol], with over 1000 nM; and `CN1CCN(Cc2ccc(Nc3ncc(F)c(-c4cc(F)c5nc6n(c5c4)[C@H](C(F)(F)F)CC6)n3)nc2)CC1` [Example 17, (S)-5-fluoro-4-(5-fluoro-1-(trifluoromethyl)-2,3-dihydro-1H-benzo[d]pyrrolo[1,2-a]imidazol-7-yl)-N-(5-((4-methylpiperazin-1-yl)methyl)pyridin-2-yl)pyrimidin-2-amine], with 10 to 100 nM.
